The test system of data set [1] is T cells. The experiment in a line: T cell infiltration into the tumor environment. The data set is classed as in vivo. The settings on record: targeting MDA-9/Syntenin.
The test system of data set [2] is MDA-9/Syntenin: Src signaling pathways in melanoma cell lines. Nature of the data set: Western blotting of signaling proteins, other melanoma cell lines. It counts as cell-based, human. Conditions: various melanoma cell lines; Western blot FIG. 12. As to the method: FIG. 12 is a Western blot of different signaling molecules as indicated for indicated cell lines treated with IVMT-Rx-3 at varying concentrations.
Western blotting was performed following a standard protocol as described previously (6,8,18,29). Antibodies used in this study were purchased from Cell Signaling Technology (Boston, MA): p-Src (Y416), total Src, matrix metalloproteinase-2 (MMP-2) and matrix metaloproteinase-9 (MMP-9), focal adhesion kinase (FAK), p IKKα/β (S176/180), total IKK, p P38 (T180/Y182) and total P38. MDA-9/Syntenin antibody was obtained from Abnova Inc. (Taiwan). β-actin (Sigma-Aldrich, St. Louis, MO) was used as an endogenous loading control. Fibronectin was purchased from EMD Millipore (Billerica, MA).

Data set [3] in a line: PK study in mice, IV and IP. The data set is classed as in vivo. As to the method:
These studies were conducted at the Sanford-Burnham Pharmacology Core facility for measurements of IVMT-Rx-3 in plasma after dosing.
The chemical formula of IVMT-Rx-3 (PDZ1/2i) is provided as FIG. 1A, and synthesis schema is described above in Chemical Example 1. Docked structure of IVMT-Rx-3 in complex with MDA-9/Syntenin is provided as FIG. 1B. After confirming the synthesis product using different analytical methods, e.g., HPLC, LC/MS and NMR (FIGS. 8A-8F), the dissociation constant of IVMT-Rx-3-recombinant MDA-9/Syntenin complex was measured to be 63+/−11 μM using microscale thermophoresis (MST) analysis (FIG. 1C). In order to assess if this hybrid chimeric molecule (small molecule linked to a peptide) was suitable for cellular and in vivo assays, initial PK studies in mice were performed with IVMT-Rx-3 administered both IV (5.0 mg/kg) and IP (50.0 mg/kg), and compound concentration in serum was measured at the indicated times (FIG. 1D).

The subject of data set [4] is NF-κB. Nature of the data set: NF-κB (p65) transcription factor assay. It counts as cell-based, human. Conditions: A-375 and C8161.9 melanoma cells. On the procedure: FIG. 4C is a histogram showing the NF-κB transcriptional activity of A-375 melanoma cells treated with the indicated doses of IVMT-Rx-3. *: Statistical significance (p<0.05).
FIG. 4D is a histogram showing the NF-κB transcriptional activity of C8161.9 melanoma cells treated with the indicated doses of IVMT-Rx-3. *: Statistical significance (p<0.05).
NF-κB transcription factor assay kits were obtained from Cayman Chemical (Ann Arbor, MI, USA) (Cat #10007889). Nuclear extracts were prepared from cells using the Nuclear and Cytoplasmic Extraction kit (Thermo Fisher Scientific, USA). The samples were then added to pretreated wells for 1 hr. after which they were washed with a wash buffer provided in the kit. The NF-κB antibody was then added with a 1 hr. incubation and after washing the antibody, HRP-conjugated secondary antibody was added for 1 hr. Lastly, a developing solution followed by a stop solution was added. The wells were analyzed with a microplate reader for absorbance at 450 nm.

Data set [5] relates to MMP-2 and MMP-9. Nature of the data set: MMP-2 and MMP-9 mRNA by real time qPCR, human melanoma cells. It counts as cell-based. The settings on record: FIG. 5A. The source says:
FIG. 5A is a series of histograms showing the MMP-2 and MMP-9 mRNA transcriptional activity in established human melanoma cells (A-375, C8161.9, and MeWo cells) and patient-derived early passage human melanoma cells (TPF-19-219, TPF-19-235, and TPF-16-238 cells) treated with IVMT-Rx-3 at varying doses, as determined by qPCR. *: Statistical significance (p<0.05).
Total cellular RNA was extracted using an RNAeasy kit (Qiagen, Germany) as described previously (8,9). All Taqman probes used in this study were obtained from Applied Biosystems (Applied Biosystems, Foster City, CA). Real time PCR was performed using an ABI ViiA7 fast real-time PCR system (Applied Biosystems, Foster City, CA).

In general, bioavailability refers to the share of a dose that reaches the circulation, judged against a reference dose that is usually intravenous. A lower bioavailability goes with poor availability.

Residues, ends and D or L forms follow the SMILES beside them.

On to `Cc1cc(NC(=O)c2nc3[nH]c4c(c(=O)n3n2)CCC4)c(C)cc1NC(=O)CCOCCC(=O)N[C@H](C(=O)N[C@@H](CC(N)=O)C(=O)N[C@@H](CCC(=O)O)C(=O)N[C@@H](Cc1ccc(O)cc1)C(=O)N[C@@H](Cc1ccc(O)cc1)C(=O)N[C@H](C(=O)O)C(C)C)[C@@H](C)O` [IVMT-Rx-3] (HELM PEPTIDE1{[Cc1cc(NC(=O)c2nc3[nH]c4c(c(=O)n3n2)CCC4)c(C)cc1NC(=O)CCOCCC(=O)[*:2]].T.N.E.Y.Y.V}$$$$V2.0), for which the “T cell infiltration into the tumor environment” value in data set [1] was “causes T cell infiltration into the tumor environment”. Further, the “inactivation of MDA-9/Syntenin: Src associated signaling pathways” value in data set [2] is reported as “inactivation of various signaling pathways”. Besides, the persistence in vivo entry in data set [3] (IV 5.0 mg/kg and IP 50.0 mg/kg) is on record as “long-lived in vivo”. For the same compound, the bioavailability in data set [3] (mouse, serum, IP 50.0 mg/kg (IV 5.0 mg/kg)) came out at 10%. Further, in data set [4], the “transcriptional activity of NF-κB” value is on record as “suppressed the transcriptional activity of NF-κB in a dose-dependent manner”. For the same compound, in data set [5], the “MMP-2 and MMP-9 mRNA expression (transcriptional level)” value was “down regulation”.
